According to US20230241027A1, “DIALKYL T[…] THEIR […] USES” (CAAMTECH, INC., priority 2020, published 2023):

Experiment: hydrolysis of the compound into its active (dissolved in water, followed by NMR)

`CN(C)CCc1c[nH]c2cccc(OP(=O)(O)O)c12` [Psilocybin] showed a half-life of under 365 days.
